What follows are molecules tested on HT-29 (assay: Cytotoxicity against human HT-29 cells).
Type: functional, cell-based
For `CC(=O)O[C@@H]1C2=C(C)[C@@H](OC(=O)[C@H](O)[C@@H](NC(=O)OC(C)C)c3ccccc3)C[C@@](O)([C@@H](OC(=O)c3ccccc3)[C@@H]3[C@]4(OC(C)=O)CO[C@@H]4C[C@H](O)[C@@]3(C)[C@H]1O)C2(C)C`, the IC50 was 0.000955 nM.
In the case of `CC(=O)O[C@@]12CO[C@@H]1C[C@H](O)[C@@]1(C)C(=O)[C@H](O)C3=C(C)[C@@H](OC(=O)[C@H](O)[C@H](CC(C)C)NC(=O)C(C)(C)C)[C@@H]4OC(=O)O[C@]4([C@@H](OC(=O)c4ccccc4)[C@H]21)C3(C)C`, the IC50 is reported as 4.17 nM.
For `CCC(=O)O[C@H]1C(=O)[C@@]2(C)[C@H]([C@H](OC(=O)c3cccc(N=[N+]=[N-])c3)[C@]3(O)C[C@H](OC(=O)[C@H](O)[C@@H](CC(=O)OC(C)(C)C)C(F)(F)F)C(C)=C1C3(C)C)[C@]1(OC(C)=O)CO[C@@H]1C[C@@H]2O`, the IC50 was 0.398 nM.
`COC(=O)O[C@H]1C(=O)[C@@]2(C)[C@H]([C@H](OC(=O)c3ccccc3)[C@]34OC(=O)O[C@H]3[C@H](OC(=O)[C@H](O)[C@H](C=C(C)C)NC(=O)C(C)(C)C)C(C)=C1C4(C)C)[C@]1(OC(C)=O)CO[C@@H]1C[C@@H]2O` was tested, and the IC50 was 0.708 nM.
With `CC(=O)O[C@H]1C(=O)[C@@]2(C)[C@H]([C@H](OC(=O)c3ccccc3)[C@]34OC(=O)O[C@H]3[C@H](OC(=O)[C@H](O)[C@H](C=C(C)C)NC(=O)C(C)(C)C)C(C)=C1C4(C)C)[C@]1(OC(C)=O)CO[C@@H]1C[C@@H]2O` the IC50 was 2.4 nM.
Work on `CC(=O)O[C@@H]1C2=C(C)[C@@H](OC(=O)[C@H](O)[C@@H](NC(=O)OCC(C)(C)C)c3ccccc3)C[C@@](O)([C@@H](OC(=O)c3ccccc3)[C@@H]3[C@]4(OC(C)=O)CO[C@@H]4C[C@H](O)[C@@]3(C)[C@H]1O)C2(C)C` yielded an IC50 of 0.00174 nM.
`CC(=O)O[C@@H]1C2=C(C)[C@@H](OC(=O)[C@H](O)[C@@H](NC(=O)OC(C)(C)C)c3ccccc3)C[C@@](O)([C@@H](OC(=O)c3ccccc3)[C@@H]3[C@]4(OC(C)=O)CO[C@@H]4C[C@H](O)[C@@]3(C)[C@H]1O)C2(C)C` gave an IC50 of 0.000186 nM.
`CC(=O)O[C@@]12CO[C@@H]1C[C@H](O)[C@@]1(C)C(=O)[C@H](OC(=O)C3CC3)C3=C(C)[C@@H](OC(=O)[C@H](O)[C@H](C=C(C)C)NC(=O)C(C)(C)C)[C@@H]4OC(=O)O[C@]4([C@@H](OC(=O)c4ccccc4)[C@H]21)C3(C)C` gave an IC50 of 1 nM.
`CCOC(=O)N[C@@H](c1ccccc1)[C@@H](O)C(=O)O[C@H]1C[C@@]2(O)[C@@H](OC(=O)c3ccccc3)[C@@H]3[C@]4(OC(C)=O)CO[C@@H]4C[C@H](O)[C@@]3(C)[C@@H](O)[C@H](OC(C)=O)C(=C1C)C2(C)C` was tested, and the IC50 was 0.00603 nM.
Work on `CCCCCC(=O)N[C@@H](C=C(C)C)[C@@H](O)C(=O)O[C@@H]1C(C)=C2[C@@H](OC(=O)C3CC3)C(=O)[C@@]3(C)[C@H]([C@H](OC(=O)c4ccccc4)[C@@]4(OC(=O)O[C@@H]14)C2(C)C)[C@]1(OC(C)=O)CO[C@@H]1C[C@@H]3O` yielded an IC50 of 15.8 nM.
With `CCCCCC(=O)N[C@@H](C=C(C)C)[C@@H](O)C(=O)O[C@@H]1C(C)=C2[C@@H](OC(=O)N(C)C)C(=O)[C@@]3(C)[C@H]([C@H](OC(=O)c4ccccc4)[C@@]4(OC(=O)O[C@@H]14)C2(C)C)[C@]1(OC(C)=O)CO[C@@H]1C[C@@H]3O` the IC50 was 5.13 nM.
Work on `CCC[C@H](NC(=O)C(C)(C)C)[C@@H](O)C(=O)O[C@@H]1C(C)=C2[C@@H](OC(C)=O)C(=O)[C@@]3(C)[C@H]([C@H](OC(=O)c4ccccc4)[C@@]4(OC(=O)O[C@@H]14)C2(C)C)[C@]1(OC(C)=O)CO[C@@H]1C[C@@H]3O` yielded an IC50 of 4.79 nM.
With `CC(=O)O[C@@]12CO[C@@H]1C[C@H](O)[C@@]1(C)C(=O)[C@H](OC(=O)N(C)C)C3=C(C)[C@@H](OC(=O)[C@H](O)[C@H](C=C(C)C)NC(=O)C(C)(C)C)[C@@H]4OC(=O)O[C@]4([C@@H](OC(=O)c4ccccc4)[C@H]21)C3(C)C` the IC50 was 1.2 nM.
In the case of `C/C=C/[C@H](NC(=O)C(C)(C)C)[C@@H](O)C(=O)O[C@@H]1C(C)=C2[C@@H](O)C(=O)[C@@]3(C)[C@H]([C@H](OC(=O)c4ccccc4)[C@@]4(OC(=O)O[C@@H]14)C2(C)C)[C@]1(OC(C)=O)CO[C@@H]1C[C@@H]3O`, the IC50 is reported as 1.91 nM.
Work on `CC(=O)O[C@@H]1C2=C(C)[C@@H](OC(=O)[C@H](O)[C@@H](NC(=O)OCC(C)C)c3ccccc3)C[C@@](O)([C@@H](OC(=O)c3ccccc3)[C@@H]3[C@]4(OC(C)=O)CO[C@@H]4C[C@H](O)[C@@]3(C)[C@H]1O)C2(C)C` yielded an IC50 of 0.00269 nM.
`CC(=O)O[C@@]12CO[C@@H]1C[C@H](O)[C@@]1(C)C(=O)[C@H](O)C3=C(C)[C@@H](OC(=O)[C@H](O)[C@@H](NC(=O)C(C)(C)C)c4ccco4)[C@@H]4OC(=O)O[C@]4([C@@H](OC(=O)c4ccccc4)[C@H]21)C3(C)C` gave an IC50 of 0.603 nM.
`CC(=O)O[C@@H]1C2=C(C)[C@@H](OC(=O)[C@H](O)[C@@H](NC(=O)c3ccc(C)cc3)c3ccccc3)C[C@@](O)([C@@H](OC(=O)c3ccccc3)[C@@H]3[C@]4(OC(C)=O)CO[C@@H]4C[C@H](O)[C@@]3(C)[C@H]1O)C2(C)C` gave an IC50 of 0.0138 nM.
With `C/C=C/C(=O)O[C@H]1C(=O)[C@@]2(C)[C@H]([C@H](OC(=O)c3ccccc3)[C@]34OC(=O)O[C@H]3[C@H](OC(=O)[C@H](O)[C@H](C=C(C)C)NC(=O)C(C)(C)C)C(C)=C1C4(C)C)[C@]1(OC(C)=O)CO[C@@H]1C[C@@H]2O` the IC50 was 1.51 nM.
`CC(=O)O[C@H]1C(=O)[C@@]2(C)[C@H]([C@H](OC(=O)c3ccccc3)[C@]34OC(=O)O[C@H]3[C@H](OC(=O)[C@H](O)[C@@H](NC(=O)C(C)(C)C)c3ccco3)C(C)=C1C4(C)C)[C@]1(OC(C)=O)CO[C@@H]1C[C@@H]2O` showed an IC50 of 0.603 nM.
`C/C=C/C(=O)O[C@H]1C(=O)[C@@]2(C)[C@H]([C@H](OC(=O)c3ccccc3)[C@]34OC(=O)O[C@H]3[C@H](OC(=O)[C@H](O)[C@H](C=C(C)C)NC(=O)CCCCC)C(C)=C1C4(C)C)[C@]1(OC(C)=O)CO[C@@H]1C[C@@H]2O` showed an IC50 of 28.2 nM.
With `CCC[C@H](NC(=O)C(C)(C)C)[C@@H](O)C(=O)O[C@@H]1C(C)=C2[C@@H](O)C(=O)[C@@]3(C)[C@H]([C@H](OC(=O)c4ccccc4)[C@@]4(OC(=O)O[C@@H]14)C2(C)C)[C@]1(OC(C)=O)CO[C@@H]1C[C@@H]3O` the IC50 was 3.8 nM.
Work on `CCC(=O)O[C@H]1C(=O)[C@@]2(C)[C@H]([C@H](OC(=O)c3ccccc3)[C@]34OC(=O)O[C@H]3[C@H](OC(=O)[C@H](O)[C@H](C=C(C)C)NC(=O)C(C)(C)C)C(C)=C1C4(C)C)[C@]1(OC(C)=O)CO[C@@H]1C[C@@H]2O` yielded an IC50 of 0.603 nM.
In the case of `CC(=O)O[C@@]12CO[C@@H]1C[C@H](O)[C@@]1(C)C(=O)[C@H](O)C3=C(C)[C@@H](OC(=O)[C@H](O)[C@H](C=C(C)C)NC(=O)C(C)(C)C)[C@@H]4OC(=O)O[C@]4([C@@H](OC(=O)c4ccccc4)[C@H]21)C3(C)C`, the IC50 is reported as 0.501 nM.
For `CC(=O)O[C@@H]1C2=C(C)[C@@H](OC(=O)[C@H](O)[C@@H](NC(=O)CC(C)(C)C)c3ccccc3)C[C@@](O)([C@@H](OC(=O)c3ccccc3)[C@@H]3[C@]4(OC(C)=O)CO[C@@H]4C[C@H](O)[C@@]3(C)[C@H]1O)C2(C)C`, the IC50 was 0.0105 nM.
Work on `CC(=O)O[C@@H]1C2=C(C)[C@@H](OC(=O)[C@H](O)[C@@H](NC(=O)NC(C)(C)C)c3ccccc3)C[C@@](O)([C@@H](OC(=O)c3ccccc3)[C@@H]3[C@]4(OC(C)=O)CO[C@@H]4C[C@H](O)[C@@]3(C)[C@H]1O)C2(C)C` yielded an IC50 of 0.00661 nM.
